The subject of assay [1] is normal immortalised pancreatic cell line (HPDE). Nature of the assay: SRB cytotoxicity assay, normal HPDE cells. In kind it is cell-based. The settings on record: normal immortalized HPDE cell line. On the procedure: (§1) The SRB colorimetric assay was employed to assess the synthesized compounds’ cytotoxic effects on several cancer cell lines (Table 1)[11–14]. […] Furthermore, the effect of tested compounds was evaluated on the normal immortalized HPDE cell line.
(§2) Sulforhodamine B (SRB) assay was employed to assay in-vitro antitumor activities of all the synthesised compounds as describer previously. […] The cell lines were obtained from the American Type Culture Collection (Rockville, USA).
(In SRB staining, fixed cells bind dye roughly in proportion to their protein.)

In assay [2] the test system is cervical carcinoma (HeLa). The assay can be described thus: SRB cytotoxicity assay, HeLa. Particulars: Homo sapiens, HeLa cells. In kind it is cell-based.
For assay [3], the system named is human prostate cancer (PC-3). Nature of the assay: SRB cytotoxicity assay, PC-3. In kind it is cell-based. Particulars: PC-3 cells. On the procedure: as §1, §2
Assay [4] deals with human hepatocellular carcinoma (HepG-2). The assay can be described thus: SRB cytotoxicity assay, HepG-2. In kind it is cell-based. Particulars: HepG2, HepG-2 cells. On the procedure: as §1, §2
For assay [5], the system named is colorectal carcinoma (HCT-116). The assay can be described thus: SRB cytotoxicity assay, HCT-116. Type of assay: cell-based. Particulars: Homo sapiens, HCT-116 cells. On the procedure: as §1, §2
The test system of assay [6] is pancreatic human cancer cell lines (BxPC-3). The assay can be described thus: SRB cytotoxicity assay, BxPC-3. Type of assay: cell-based. The settings on record: BxPC-3 cells. On the procedure:
as §1, §2

The target of the next assay is T1, human DHFR enzyme (Homo sapiens, UniProt P00374).
T1 construct: purchased MyBioSource MBS9312476
T1 sequence (P00374 1-187): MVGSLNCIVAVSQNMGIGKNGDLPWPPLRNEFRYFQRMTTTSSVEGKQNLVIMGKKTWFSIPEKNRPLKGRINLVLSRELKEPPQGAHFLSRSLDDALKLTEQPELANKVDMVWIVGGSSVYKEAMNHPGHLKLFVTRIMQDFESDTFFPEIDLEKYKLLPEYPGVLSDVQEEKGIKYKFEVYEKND
The assay can be described thus: Elisa assay of human DHFR enzyme. Type of assay: biochemical. The settings on record: for IC50: DHFR ELISA kit, triplicate; for inhibition at 0.1 µM: conc 0.1 uM; for inhibition at 1 µM: conc 1 uM; for inhibition at 10 µM: conc 10 uM; for inhibition at 100 µM: conc 100 uM. On the procedure: Enzyme-linked immunosorbent assay (ELISA) assay technique was used to evaluate the anti-DHFR effects of all the synthesised compounds on as described previously. The DHFR ELISA kit (MyBioSource, MBS9312476 San Diego, CA, USA) was used according to the manufacturer instructions. […] The test was repeated in triplicate, and the significance was assessed by one-way ANOVA test followed by Tukey’s posttest, where p < 0.05 was considered significance.

Assay [7] deals with mammary gland breast cancer (MCF-7). The assay can be described thus: SRB cytotoxicity assay, MCF-7. Particulars: Homo sapiens, MCF7, MCF-7 cells. Type of assay: cell-based. On the procedure:
as §1, §2

This passage reports IC50 and inhibition results from PMC9673804, “Design, synthesis and antitumor evaluation of novel pyrazolo[3,4-d]pyrimidines incorporating different amino acid conjugates as potential DHFR inhibitors” (Journal of Enzyme Inhibition and Medicinal Chemistry, 2022).

“And” between values parts separate entries of the source, which are not always exact repeats. Equal entries are not always repeated.

The term IC50 denotes the concentration at which inhibition is half-maximal. Low values mean inhibition by little substance, high ones a need for much substance. A word on the inhibition: it is the share of the control response that was lost under treatment. A lower inhibition goes with a weak effect.

`O=C(O)C1CCCN1C(=O)c1ccc(Nc2ncnc3c2cnn3-c2ccccc2)cc1` (stereo not drawn) [Compound 7j, 1-{4-[(1-Phenyl-1H-pyrazolo[3,4-d]pyrimidin-4-yl)amino]benzoyl}pyrrolidine-2-carboxylic acid]: the IC50 was greater than 50 µM in assay [1]; 9.29 ± 0.2 µM in assay [2]; 11.2 ± 0.7 µM in assay [3]; 10.3 ± 1.2 µM in assay [4]; 8.1 ± 0.2 µM in assay [5]; 6.19 ± 0.43 µM in assay [6]. Moreover, the IC50 is < 1 µM and 0.54 µM against human DHFR enzyme; 8.19 ± 1.2 µM in assay [7]. Besides, the inhibition at 0.1 µM against human DHFR enzyme came out at 41%. Besides, at human DHFR enzyme, at 1 µM the inhibition was 64%. This molecule also yielded an inhibition at 10 µM at human DHFR enzyme of 80%. At human DHFR enzyme, this molecule registered an inhibition at 100 µM of 93%.
On to `O=C(NC(Cc1c[nH]c2ccccc12)C(=O)O)c1ccc(Nc2ncnc3c2cnn3-c2ccccc2)cc1` (stereo not drawn) [Compound 7k, 3-(1h-Indol-3-yl)-2-{4-[(1-phenyl-1H-pyrazolo[3,4-d]pyrimidin-4-yl)amino]benzamido}propanoic acid], for which the IC50 in assay [1] was greater than 50 µM; in assay [2], 19.5 ± 1.1 µM; in assay [3], 19.9 ± 1.35 µM; in assay [4], 25.54 ± 0.14 µM; in assay [5] it was 18 ± 1.23 µM; in assay [6] it was 19.1 ± 1.23 µM. In addition, the IC50 against human DHFR enzyme is 7 ± 0.17 µM; in assay [7], 28.9 ± 1.91 µM. The molecule further came in with an inhibition at 0.1 µM against human DHFR enzyme of 21%. The inhibition at 1 µM at human DHFR enzyme was 37%. Moreover, at 10 µM the inhibition at human DHFR enzyme was 60%. The inhibition at 100 µM against human DHFR enzyme came out at 77%.
`O=C(NC(Cc1ccccc1)C(=O)O)c1ccc(Nc2ncnc3c2cnn3-c2ccccc2)cc1` (stereo not drawn) [Compound 7l, 3-Phenyl-2-{4-[(1-phenyl-1H-pyrazolo[3,4-d]pyrimidin-4-yl)amino]benzamido}propanoic acid]: the IC50 in assay [1] was greater than 50 µM; in assay [2], 9.05 ± 1.2 µM; in assay [3], 10.1 ± 0.9 µM; in assay [4], 13.2 ± 1.29 µM; in assay [5], 13 ± 0.89 µM; in assay [6], 11.5 ± 0.76 µM. The IC50 at human DHFR enzyme is < 1 µM and ~0.66 µM and 0.66 µM; in assay [7], 10.7 ± 1.09 µM. In addition, on human DHFR enzyme, the inhibition at 0.1 µM stood at 34%. The molecule also gave an inhibition at 1 µM against human DHFR enzyme of 68%. In addition, the inhibition at 10 µM against human DHFR enzyme was found to be 81%. Further, 100 µM produced 92% inhibition on human DHFR enzyme.
Regarding `O=C(NC(Cc1ccc(O)cc1)C(=O)O)c1ccc(Nc2ncnc3c2cnn3-c2ccccc2)cc1` (stereo not drawn) [Compound 7m, 3-(4-Hydroxyphenyl)-2-{4-[(1-phenyl-1H-pyrazolo[3,4-d]pyrimidin-4-yl)amino]benzamido}-propanoic acid], the IC50 in assay [1] was greater than 50 µM; in assay [2], 11.8 ± 1.13 µM; in assay [3] it was 12.7 ± 1.87 µM; in assay [4], 14.2 ± 0.98 µM; in assay [5], 13.3 ± 2.21 µM; in assay [6], 12 ± 1.14 µM. Moreover, the IC50 against human DHFR enzyme amounted to 1.34 ± 0.03 µM; in assay [7], 11.3 ± 1.28 µM. The molecule further registered an inhibition at 0.1 µM against human DHFR enzyme of 36%. The inhibition at 1 µM on human DHFR enzyme stood at 52%. For the same molecule, at human DHFR enzyme, the inhibition at 10 µM was found to be 73%. At human DHFR enzyme, this molecule showed an inhibition at 100 µM of 86%.
